This passage reports mutagenic call results from PubChem BioAssay AID1259407 (Chemical Carcinogenesis Research Information System (CCRIS), 2018).

The series has as its system CCRIS mutagenicity, Ames/micronucleus/aberration tests. Description: CCRIS mutagenicity studies.
The mark [1] stands for this setting: Test System: AMES SALMONELLA TYPHIMURIUM, Strain/Indicator: TA98, Metabolic Activation: NONE, Method: PREINCUBATION
Where [2] appears, read: Test System: AMES SALMONELLA TYPHIMURIUM, Strain/Indicator: TA100, Metabolic Activation: NONE, Method: PREINCUBATION
Where [3] appears, read: Test System: AMES SALMONELLA TYPHIMURIUM, Strain/Indicator: TA1535, Metabolic Activation: NONE, Method: PREINCUBATION
Setting [4] is: Test System: AMES SALMONELLA TYPHIMURIUM, Strain/Indicator: TA100, Metabolic Activation: NONE, Method: STANDARD PLATE.

Active and inactive are the calls of the source. The rule behind the calls is not given here.

With `CCCCCCCCCCCCOCC1CO1` (stereo unspecified), the mutagenic call by setting is: (Test System: AMES SALMONELLA TYPHIMURIUM, Strain/Indicator: TA97, Metabolic Activation: HAMSTER, LIVER, S-9, AROCLOR 1254 (10%), Method: PREINCUBATION) “inactive; negative”; (Test System: AMES SALMONELLA TYPHIMURIUM, Strain/Indicator: TA97, Metabolic Activation: HAMSTER, LIVER, S-9, AROCLOR 1254 (30%), Method: PREINCUBATION) “inactive; negative”; (Test System: AMES SALMONELLA TYPHIMURIUM, Strain/Indicator: TA97, Metabolic Activation: NONE, Method: PREINCUBATION) “inactive; negative”; (Test System: AMES SALMONELLA TYPHIMURIUM, Strain/Indicator: TA97, Metabolic Activation: RAT, LIVER, S-9, AROCLOR 1254 (10%), Method: PREINCUBATION) “inactive; negative”; (Test System: AMES SALMONELLA TYPHIMURIUM, Strain/Indicator: TA97, Metabolic Activation: RAT, LIVER, S-9, AROCLOR 1254 (30%), Method: PREINCUBATION) “inactive; negative”; (Test System: AMES SALMONELLA TYPHIMURIUM, Strain/Indicator: TA98, Metabolic Activation: HAMSTER, LIVER, S-9, AROCLOR 1254 (10%), Method: PREINCUBATION) “inactive; negative”. Also, the mutagenic call reads like this: (Test System: AMES SALMONELLA TYPHIMURIUM, Strain/Indicator: TA98, Metabolic Activation: HAMSTER, LIVER, S-9, AROCLOR 1254 (30%), Method: PREINCUBATION) “inactive; negative”; under setting [1], “inactive; negative”; (Test System: AMES SALMONELLA TYPHIMURIUM, Strain/Indicator: TA98, Metabolic Activation: RAT, LIVER, S-9, AROCLOR 1254 (10% & 30%), Method: PREINCUBATION) “inactive; negative”; (Test System: AMES SALMONELLA TYPHIMURIUM, Strain/Indicator: TA100, Metabolic Activation: HAMSTER, LIVER, S-9, AROCLOR 1254 (10%), Method: PREINCUBATION) “inactive; negative”; (Test System: AMES SALMONELLA TYPHIMURIUM, Strain/Indicator: TA100, Metabolic Activation: HAMSTER, LIVER, S-9, AROCLOR 1254 (30%), Method: PREINCUBATION) “inactive; negative”; under setting [2], “inactive; negative”. Further, the mutagenic call runs as follows: (Test System: AMES SALMONELLA TYPHIMURIUM, Strain/Indicator: TA100, Metabolic Activation: RAT, LIVER, S-9, AROCLOR 1254 (10%), Method: PREINCUBATION) “inactive; negative”; (Test System: AMES SALMONELLA TYPHIMURIUM, Strain/Indicator: TA100, Metabolic Activation: RAT, LIVER, S-9, AROCLOR 1254 (30%), Method: PREINCUBATION) “inactive; negative”; (Test System: AMES SALMONELLA TYPHIMURIUM, Strain/Indicator: TA1535, Metabolic Activation: HAMSTER, LIVER, S-9, AROCLOR 1254 (10%), Method: PREINCUBATION) “inactive; negative”; under setting [3], “inactive; negative”; (Test System: AMES SALMONELLA TYPHIMURIUM, Strain/Indicator: TA1535, Metabolic Activation: RAT, LIVER, S-9, AROCLOR 1254 (10%), Method: PREINCUBATION) “inactive; negative”; (Test System: AMES SALMONELLA TYPHIMURIUM, Strain/Indicator: TA1535, Metabolic Activation: RAT, LIVER, S-9, AROCLOR 1254 (30%), Method: PREINCUBATION) “inactive; negative”.
`O=C1OC(=C(Cl)Cl)C(Cl)=C1Cl`: under setting [4], the mutagenic call was “active; positive”.
`Cc1cccc(N=Nc2ccc(N(C)C)cc2)c1`: the mutagenic call was “active; positive” (Test System: AMES SALMONELLA TYPHIMURIUM, Strain/Indicator: TA98, Metabolic Activation: RAT, LIVER, S-9, KC500 OR PHENOBARBITAL, Method: LIQUID SUSPENSION); “active; positive” (Test System: AMES SALMONELLA TYPHIMURIUM, Strain/Indicator: TA98, Metabolic Activation: RAT, LIVER, S-9, N-BENZYLIMIDAZOLE, Method: PREINCUBATION); “active; positive” (Test System: AMES SALMONELLA TYPHIMURIUM, Strain/Indicator: TA100, Metabolic Activation: RAT, LIVER, S-9, KC500 OR PHENOBARBITAL, Method: LIQUID SUSPENSION); “active; positive” (Test System: AMES SALMONELLA TYPHIMURIUM, Strain/Indicator: TA1538, Metabolic Activation: RAT, LIVER, S-9, PHENOBARBITAL, Method: STANDARD PLATE); “active; positive” (Test System: UDS RODENT HEPATOCYTES, Strain/Indicator: THY INCORP (NON-S-PHASE), Method: AUTORADIOGRAPHY); “active; positive” (Test System: UDS RODENT HEPATOCYTES, Strain/Indicator: THY INCORP (NON-S-PHASE), Method: LIQUID SCINTILLATION COUNTING).
Regarding `Cc1c2cccc(C)c2nc2c1ccc1ccccc12`, the mutagenic call is, setting by setting: (Test System: AMES SALMONELLA TYPHIMURIUM, Strain/Indicator: TA97A, Metabolic Activation: NONE, Method: PREINCUBATION) “inactive; negative”; under setting [1], “active; positive”; under setting [2], “inactive; negative”; (Test System: AMES SALMONELLA TYPHIMURIUM, Strain/Indicator: TA102, Metabolic Activation: NONE, Method: PREINCUBATION) “active; positive”.
As to `C1CC2OC2CC1C1CO1` (stereo unspecified), the mutagenic call runs as follows: (Test System: AMES SALMONELLA TYPHIMURIUM, Strain/Indicator: TA98, Metabolic Activation: HAMSTER, LIVER, S-9, AROCLOR 1254, Method: PREINCUBATION) “active; positive”; under setting [1], “active; positive”; (Test System: AMES SALMONELLA TYPHIMURIUM, Strain/Indicator: TA98, Metabolic Activation: RAT, LIVER, S-9, AROCLOR 1254, Method: PREINCUBATION) “active; positive”; (Test System: AMES SALMONELLA TYPHIMURIUM, Strain/Indicator: TA100, Metabolic Activation: HAMSTER, LIVER, S-9, AROCLOR 1254, Method: PREINCUBATION) “active; positive”; under setting [2], “active; positive”; (Test System: AMES SALMONELLA TYPHIMURIUM, Strain/Indicator: TA100, Metabolic Activation: RAT, LIVER, S-9, AROCLOR 1254, Method: PREINCUBATION) “active; positive”. The mutagenic call by setting is: (Test System: AMES SALMONELLA TYPHIMURIUM, Strain/Indicator: TA1535, Metabolic Activation: HAMSTER, LIVER, S-9, AROCLOR 1254, Method: PREINCUBATION) “active; positive”; under setting [3], “active; positive”; (Test System: AMES SALMONELLA TYPHIMURIUM, Strain/Indicator: TA1535, Metabolic Activation: RAT, LIVER, S-9, AROCLOR 1254, Method: PREINCUBATION) “active; positive”; (Test System: AMES SALMONELLA TYPHIMURIUM, Strain/Indicator: TA1537, Metabolic Activation: HAMSTER, LIVER, S-9, AROCLOR 1254, Method: PREINCUBATION) “active; positive”; (Test System: AMES SALMONELLA TYPHIMURIUM, Strain/Indicator: TA1537, Metabolic Activation: RAT, LIVER, S-9, AROCLOR 1254, Method: PREINCUBATION) “active; positive”; (Test System: MOUSE LYMPHOMA, Strain/Indicator: L5178Y (TK+/TK-), Metabolic Activation: NONE, Method: SUSPENSION/PLATE) “active; positive”.
For the compound `COc1cc(N)cc(OC)c1N`, the mutagenic call was “inactive; negative” (Test System: AMES SALMONELLA TYPHIMURIUM, Strain/Indicator: TA98, Metabolic Activation: NONE, Method: STANDARD PLATE); “inactive; negative” (Test System: AMES SALMONELLA TYPHIMURIUM, Strain/Indicator: TA98, Metabolic Activation: RAT, LIVER, S-9, AROCLOR 1254, Method: STANDARD PLATE); “inactive; negative” under setting [4]; “inactive; negative” (Test System: AMES SALMONELLA TYPHIMURIUM, Strain/Indicator: TA100, Metabolic Activation: RAT, LIVER, S-9, AROCLOR 1254, Method: STANDARD PLATE); “inactive; negative” (Test System: AMES SALMONELLA TYPHIMURIUM, Strain/Indicator: TA1535, Metabolic Activation: NONE, Method: STANDARD PLATE); “inactive; negative” (Test System: AMES SALMONELLA TYPHIMURIUM, Strain/Indicator: TA1535, Metabolic Activation: RAT, LIVER, S-9, AROCLOR 1254, Method: STANDARD PLATE). Also, the mutagenic call runs as follows: (Test System: AMES SALMONELLA TYPHIMURIUM, Strain/Indicator: TA1537, Metabolic Activation: NONE, Method: STANDARD PLATE) “inactive; negative”; (Test System: AMES SALMONELLA TYPHIMURIUM, Strain/Indicator: TA1537, Metabolic Activation: RAT, LIVER, S-9, AROCLOR 1254, Method: STANDARD PLATE) “inactive; negative”; (Test System: AMES SALMONELLA TYPHIMURIUM, Strain/Indicator: TA1538, Metabolic Activation: NONE, Method: STANDARD PLATE) “inactive; negative”; (Test System: AMES SALMONELLA TYPHIMURIUM, Strain/Indicator: TA1538, Metabolic Activation: RAT, LIVER, S-9, AROCLOR 1254, Method: STANDARD PLATE) “inactive; negative”.
